Laboratory results published in patent publication US5457104A, “Quinolone- and naphthyridonecarboxylic acid derivatives” (Bayer Aktiengesellschaft, priority 1993, dated 1995).
Converted amounts (≈) assume the structure as drawn.

Assays:
Assay in all cases: MIC, serial dilution test on Iso-sensitest agar
Type in all cases: cell-based
[1] = test system: Acinetobacter caloaceticus 14068; conditions: 37° C., approx. 20 hours, approx. 10^4 CFU per inoculation point
Description: (§1) The minimum inhibitory concentrations (MIC) were determined by the serial dilution test on Iso-sensitest agar (Oxoid). For each test substance, a series of agar plates was prepared which contained concentrations of the active substance which decreased at a rate of in each case twice the dilution factor. The agar plates were inoculated using a multipoint inoculator (Denley). For inoculation, overnight cultures of the pathogens were used which had previously been diluted in such a manner that each inoculation point contained approximately 10^4 colony-forming units. The inoculated agar plates were incubated at 37° C., and the microbial growth was observed after approx. 20 hours. The MIC value (μg/ml) indicates the lowest active compound concentration at which no growth could be detected by the naked eye.

[2] = test system: E. coli 455/7; conditions: Escherichia coli, 37° C., approx. 20 hours, approx. 10^4 CFU per inoculation point
Description: as §1

[3] = test system: E. coli Neumann; conditions: Escherichia coli, 37° C., approx. 20 hours, approx. 10^4 CFU per inoculation point
Description: as §1

[4] = test system: Enterococcus faecalis 27101; conditions: 37° C., approx. 20 hours, approx. 10^4 CFU per inoculation point
Description: as §1

[5] = test system: Enterococcus faecalis 9790; conditions: 37° C., approx. 20 hours, approx. 10^4 CFU per inoculation point
Description: as §1

[6] = test system: Klebsiella pneumoniae 63; conditions: 37° C., approx. 20 hours, approx. 10^4 CFU per inoculation point
Description: as §1

[7] = test system: Klebsiella pneumoniae 8085; conditions: 37° C., approx. 20 hours, approx. 10^4 CFU per inoculation point
Description: as §1

[8] = test system: Mirococcus luteus 9341; conditions: 37° C., approx. 20 hours, approx. 10^4 CFU per inoculation point
Description: as §1

[9] = test system: Providencia sp. 12012; conditions: 37° C., approx. 20 hours, approx. 10^4 CFU per inoculation point
Description: as §1

[10] = test system: Providencia sp. 12052; conditions: 37° C., approx. 20 hours, approx. 10^4 CFU per inoculation point
Description: as §1

[11] = test system: Staphylococcus aureus 133; conditions: 37° C., approx. 20 hours, approx. 10^4 CFU per inoculation point
Description: as §1

[12] = test system: Staphylococcus aureus 1756; conditions: 37° C., approx. 20 hours, approx. 10^4 CFU per inoculation point
Description: as §1

[13] = test system: Staphylococcus aureus 25768; conditions: 37° C., approx. 20 hours, approx. 10^4 CFU per inoculation point
Description: as §1

[14] = test system: Staphylococcus aureus ICB 25701; conditions: ICB25701, 37° C., approx. 20 hours, approx. 10^4 CFU per inoculation point
Description: as §1

Structure (SMILES) | MIC [1] [µg/mL] | MIC [2] [µg/mL] | MIC [3] [µg/mL] | MIC [4] [µg/mL] | MIC [5] [µg/mL] | MIC [6] [µg/mL] | MIC [7] [µg/mL] | MIC [8] [µg/mL] | MIC [9] [µg/mL] | MIC [10] [µg/mL] | MIC [11] [µg/mL] | MIC [12] [µg/mL] | MIC [13] [µg/mL] | MIC [14] [µg/mL]
NC1C=CCC2CN(c3ccc4c(=O)c(C(=O)O)cn(C5CC5)c4c3F)CC12 (stereo not shown) [Example 20] | 0.06 (≈ 0.156 µM) | 1 (≈ 2.61 µM) | 0.03 (≈ 0.0782 µM) | 0.06 (≈ 0.156 µM) | 0.06 (≈ 0.156 µM) | 0.03 (≈ 0.0782 µM) | 0.03 (≈ 0.0782 µM) | 0.06 (≈ 0.156 µM) | 0.06 (≈ 0.156 µM) | 1 (≈ 2.61 µM) | 0.03 (≈ 0.0782 µM) | 0.015 (≈ 0.0391 µM) | 4 (≈ 10.4 µM) | 0.25 (≈ 0.652 µM)
NC1C=CCC2CN(c3ccc4c(=O)c(C(=O)O)cn(C5CC5)c4c3Cl)CC12 (stereo not shown) [Example 7] | 0.015 (≈ 0.0375 µM) | 0.5 (≈ 1.25 µM) | 0.0078 (≈ 0.0195 µM) | 0.015 (≈ 0.0375 µM) | 0.03 (≈ 0.075 µM) | 0.015 (≈ 0.0375 µM) | 0.015 (≈ 0.0375 µM) | 0.03 (≈ 0.075 µM) | 0.015 (≈ 0.0375 µM) | 1 (≈ 2.5 µM) | 0.0039 (≈ 0.00975 µM) | 0.0039 (≈ 0.00975 µM) | 2 (≈ 5 µM) | 0.06 (≈ 0.15 µM)
NC1CCN(c2ccc3c(=O)c(C(=O)O)cn(C4CC4)c3c2F)C1 (stereo not shown) [Reference, 7-(3-aminopyrrolidin-1-yl)-1-cyclopropyl-8-fluoro-1,4-dihydro-4-oxo-3-quinolinecarboxylic acid, reference compound] | 0.25 (≈ 0.754 µM) | 1 (≈ 3.02 µM) | 0.031 (≈ 0.0936 µM) | 0.25 (≈ 0.754 µM) | 0.25 (≈ 0.754 µM) | 0.062 (≈ 0.187 µM) | 0.062 (≈ 0.187 µM) | 0.5 (≈ 1.51 µM) | 0.06 (≈ 0.181 µM) | 2 (≈ 6.04 µM) | 0.125 (≈ 0.377 µM) | 0.125 (≈ 0.377 µM) | 16 (≈ 48.3 µM) | 4 (≈ 12.1 µM)

Second part, the molecule after the results:

MIC [1] [µg/mL] | MIC [2] [µg/mL] | MIC [3] [µg/mL] | MIC [4] [µg/mL] | MIC [5] [µg/mL] | MIC [6] [µg/mL] | MIC [7] [µg/mL] | MIC [8] [µg/mL] | MIC [9] [µg/mL] | MIC [10] [µg/mL] | MIC [11] [µg/mL] | MIC [12] [µg/mL] | MIC [13] [µg/mL] | MIC [14] [µg/mL] | Structure (SMILES)
0.03 (≈ 0.0755 µM) | 0.5 (≈ 1.26 µM) | 0.015 (≈ 0.0377 µM) | 0.06 (≈ 0.151 µM) | 0.06 (≈ 0.151 µM) | 0.3 (≈ 0.755 µM) | 0.3 (≈ 0.755 µM) | 0.125 (≈ 0.315 µM) | 0.06 (≈ 0.151 µM) | 1 (≈ 2.52 µM) | 0.015 (≈ 0.0377 µM) | 0.015 (≈ 0.0377 µM) | 2 (≈ 5.03 µM) | 0.25 (≈ 0.629 µM) | CC1C=CC(N)C2CN(c3ccc4c(=O)c(C(=O)O)cn(C5CC5)c4c3F)CC12 (stereo not shown) [Example 21]
0.03 (≈ 0.0725 µM) | 0.5 (≈ 1.21 µM) | 0.015 (≈ 0.0362 µM) | 0.06 (≈ 0.145 µM) | 0.06 (≈ 0.145 µM) | 0.03 (≈ 0.0725 µM) | 0.03 (≈ 0.0725 µM) | 0.06 (≈ 0.145 µM) | 0.06 (≈ 0.145 µM) | 1 (≈ 2.42 µM) | 0.0078 (≈ 0.0188 µM) | 0.0078 (≈ 0.0188 µM) | 2 (≈ 4.83 µM) | 0.06 (≈ 0.145 µM) | CC1C=CC(N)C2CN(c3ccc4c(=O)c(C(=O)O)cn(C5CC5)c4c3Cl)CC12 (stereo not shown) [Example 8]
